Laboratory results: PMC10531311, “Anti-Inflammatory Activities of 8-Benzylaminoxanthines Showing High Adenosine A2A and Dual A1/A2A Receptor Affinity” (International Journal of Molecular Sciences, 2023)

What was measured:
[1] = target: T1, human adenosine A3R (Homo sapiens, UniProt P0DMS8); assay: Radioligand binding at human adenosine A3 receptor vs. [3H]PSB-11; conditions: for inhibition at 1 µM: CHO cells, read-out: A3R vs. [H³]PSB-11 % Inhibition ± SEM at 1 µM; for Ki: human recombinant receptor in CHO cells, read-out: A3R vs. [H³]PSB-11 Ki ± SEM
T1 construct: expressed in transfected cells; host or cells: CHO cells
T1 sequence (P0DMS8 1-318): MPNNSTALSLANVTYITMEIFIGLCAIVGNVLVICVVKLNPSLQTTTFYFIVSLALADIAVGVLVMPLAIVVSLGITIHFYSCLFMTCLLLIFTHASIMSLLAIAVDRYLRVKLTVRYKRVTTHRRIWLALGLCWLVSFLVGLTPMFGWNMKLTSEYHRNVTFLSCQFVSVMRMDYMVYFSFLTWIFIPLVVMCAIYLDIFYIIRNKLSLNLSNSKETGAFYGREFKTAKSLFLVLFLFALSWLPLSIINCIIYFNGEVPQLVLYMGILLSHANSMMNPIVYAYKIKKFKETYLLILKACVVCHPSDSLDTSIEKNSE

[2] = target: T2, human adenosine A2AR (Homo sapiens, UniProt P29274); assay: Radioligand binding at human adenosine A2A receptor vs. [3H]MSX-2; conditions: for potency as A2AR ligand compared with A1R: from Ki values of Table 1; for Ki: human recombinant receptor in CHO cells, read-out: A2AR vs. [³H]MSX-2 Ki ± SEM
T2 construct: expressed in transfected cells; host or cells: CHO cells

[3] = target: T3, human adenosine A1R (Homo sapiens, UniProt P30542); assay: Radioligand binding at human adenosine A1 receptor vs. [3H]CCPA; conditions: human recombinant receptor in CHO cells; read-out: A1R vs. [³H]CCPA Ki ± SEM
T3 construct: expressed in transfected cells; host or cells: CHO cells
T3 sequence (P30542 1-326): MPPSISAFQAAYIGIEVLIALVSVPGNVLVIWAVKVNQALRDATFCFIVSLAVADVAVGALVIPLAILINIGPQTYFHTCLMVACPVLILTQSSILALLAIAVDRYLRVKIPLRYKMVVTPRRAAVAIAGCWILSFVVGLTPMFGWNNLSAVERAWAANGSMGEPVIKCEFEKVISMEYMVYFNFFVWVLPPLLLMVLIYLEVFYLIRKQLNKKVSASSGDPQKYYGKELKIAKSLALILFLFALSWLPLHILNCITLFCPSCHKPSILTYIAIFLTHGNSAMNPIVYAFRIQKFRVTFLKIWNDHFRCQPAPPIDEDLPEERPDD

[4] = tested on: SH-SY5Y cells; assay: Neurotoxicity, MTS cell viability; assay type: cell-based, human; conditions: 0.098 μM to 100 μM, 24 h
Method: Drug safety is a critical step in the process of drug development. […] In our studies, neurotoxicity and hepatotoxicity were evaluated in SH-SY5Y and HepG2 cells, respectively. The compounds were tested at 11 concentrations from 0.098 μM to 100 μM (see Figure 5). Cell viability was assessed after incubation for 24 h with the SH-SY5Y line and for 48 h with the HepG2 line.
To evaluate neurotoxicity and hepatotoxicity, the human neuroblastoma cell line SH-SY5Y (ATCC® no. CRL-2266™) and hepatoma cell line HepG2 (ATCC® no. HB-8065™) were used, respectively. The cells (SH-SY5Y: 5 × 10^3 cells/100μL/well and HepG2: 7 × 10^3 cells/100 μL/well) were seeded in transparent 96-well plates (Nunc) in DMEM supplemented with 10% FBS and cultured overnight. The next day, the medium was changed to medium containing dimethylsulfoxide (DMSO < 0.1%, vehicle control) or an increasing concentration of compounds MZ-1483 (19), MZ-1490 (22) and MZ-1495 (24) ([…]–100 × 10^−6 M). To perform dose-response analysis, two-fold serial dilutions (11 points) were prepared. Treatment with compounds was performed for 48 h. After the incubation time, the cell viability was examined using an MTS-based [3-(4,5-dimethylthiazol-2-yl)-5-(3-carboxymethoxyphenyl)-2-(4-sulfophenyl)-2 H tetrazolium] CellTiter96® AQueous One Solution Cell Proliferation Assay (Promega, Madison, WI, USA) following the manufacturer’s protocol. Briefly, 20 μL of MTS solution was pipetted into each well containing 100 μL of culture or culture medium (negative control) and incubated at 37 °C for 1 h. After incubation time, formazan product turnover absorbance was measured at 490 nm using the microplate reader (Tecan Spark®, Tecan Group Ltd., Maennedorf, Switzerland). A reference wavelength of 630 nm was used.

T2 sequence (P29274 whole entry): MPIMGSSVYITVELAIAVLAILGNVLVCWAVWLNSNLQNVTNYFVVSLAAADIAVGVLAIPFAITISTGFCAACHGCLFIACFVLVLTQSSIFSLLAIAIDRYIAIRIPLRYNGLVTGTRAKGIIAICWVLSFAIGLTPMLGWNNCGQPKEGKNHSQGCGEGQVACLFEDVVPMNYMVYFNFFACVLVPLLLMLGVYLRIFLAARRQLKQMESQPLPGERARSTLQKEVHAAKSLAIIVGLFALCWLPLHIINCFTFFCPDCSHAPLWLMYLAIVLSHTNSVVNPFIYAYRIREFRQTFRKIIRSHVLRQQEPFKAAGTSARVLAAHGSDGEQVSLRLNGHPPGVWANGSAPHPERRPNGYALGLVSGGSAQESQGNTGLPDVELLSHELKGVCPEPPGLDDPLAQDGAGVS

**Q.** With `C#CCn1c(=O)c2c(nc(NCc3cccc(Br)c3)n2C)n(C)c1=O` [compound 24, 8-((3-Bromobenzyl)amino)-3,7-dimethyl-1-(prop-2-yn-1-yl)-3,7-dihydro-1H-purine-2,6-dione] as the compound, how does the inhibition at 1 µM [1] read?
**A.** 7%

**Q.** And the Ki [1]?
**A.** > 1000 nM

**Q.** What about the “potency as A2AR ligand compared with A1R” value [2] of the same compound?
**A.** equal potency for both receptors

**Q.** What about the Ki [2] of the same compound?
**A.** 77 ± 24 nM

**Q.** And the Ki [3]?
**A.** 72 ± 8 nM

**Q.** What about the melting point of the same compound?
**A.** 248 to 250 °C

**Q.** What about the “neurotoxicity, cell viability (in words)” value [4] of the same compound?
**A.** high safety profile

**Q.** For `C#CCn1c(=O)c2c(nc(NCc3ccccc3Cl)n2C)n(C)c1=O` [compound 19, 8-((2-Chlorobenzyl)amino)-3,7-dimethyl-1-(prop-2-yn-1-yl)-3,7-dihydro-1H-purine-2,6-dione], which inhibition at 1 µM [1] is on record?
**A.** 9%

**Q.** And the Ki [1]?
**A.** > 1000 nM

**Q.** What about the “potency as A2AR ligand compared with A1R” value [2] of the same compound?
**A.** four times more potent as A2AR ligand

**Q.** What about the Ki [2] of the same compound?
**A.** 96 ± 31 nM

**Q.** What about the Ki [3] of the same compound?
**A.** 407 ± 75 nM

**Q.** And the melting point?
**A.** 223 to 225 °C

**Q.** What about the “neurotoxicity, cell viability (in words)” value [4] of the same compound?
**A.** high safety profile

**Q.** What does the source list for `C#CCn1c(=O)c2c(nc(NCc3c(F)cccc3Cl)n2C)n(C)c1=O` [compound 22, 8-((2-Chloro-6-fluorobenzyl)amino)-3,7-dimethyl-1-(prop-2-yn-1-yl)-3,7-dihydro-1H-purine-2,6-dione]?
**A.** inhibition at 1 µM [1]: 21%; Ki [1]: > 1000 nM; potency as A2AR ligand compared with A1R [2]: twice more potent as A2AR ligand; Ki [2]: 62 ± 5 nM; Ki [3]: 130 ± 34 nM; melting point: 276 to 278 °C; neurotoxicity, cell viability (in words) [4]: high safety profile
